Series [1] in a line: CMC by polarized fluorescence anisotropy with fluorescein as probe. Format: physicochemical. Conditions: TBS, pH 7.4. Here is the method: CMC of CHAPS and 14:0 NPS-PC were determined by polarized fluorescence anisotropy based on the method by Thorsteinsson et al.[21] with modification in a Varian Cary Eclipse fluorescence spectrophotometer using fluorescein as probe. Fluorescein was dissolved in TBS, pH 7.4, at final concentration of 0.1 µM. Solid CHAPS (control) or 14:0 NPS-PC was dissolved in TBS-fluorescein solution at concentrations indicated in figure and subjected to serial dilution in the same buffer. All fleshly prepared solutions were measured for fluorescence emission at 520 nm (excited at 490 nm) and compared the emission optics for the horizontal orientation to the vertical orientation. The anisotropy ratio of fluorescence intensities was plotted against the concentration incrementation of CHAPS or 14:0 NPS-PC. The anisotropy ratio was calculated as the followings. Anisotropyratior=IVV-G×IVH÷IVV+2×G×IVH where IVV indicates the intensity with vertically polarized excitation and vertical polarization on the detected emission. IVH indicates the intensity when using a vertical polarizer on the excitation and horizontal polarizer on the emission. G is a grating factor used as a correction for the instrument’s differential transmission of the two orthogonal vector orientations.
A general note: Fluorescence polarisation rises when a labelled molecule tumbles more slowly, as on binding a larger partner.

For series [2] the following is noted: in Fig. 1a; source not stated; cited from earlier work.
Series [3] has as its system Lp-PLA2. Also on record: method as in PMID 25173516, PMID 24678955. Conditions: 160 mg daily for 12 weeks; cited from earlier work.
Series [4] can be described thus: Distribution in bulk phase, detergent micelles and lipoproteins by SEC (TSKgel G3000SWXL). Format: physicochemical. The procedure:
Figure 8 Distribution of 14:0 NPS-PC and darapladib under different conditions. Assay methods are described in Experimental Procedures. (a) Distribution of 14:0 NPS-PC in TBS, pH 7.4, with and without detergents. Twenty µl of 14:0 NPS-PC at 10 µM were resolved by a TSKgel G3000SWXL column in TBS, pH 7.4, containing no detergent, 10 mM CHAPS or 60 µM Tween-20. Absorbance at 260 nm were monitored for 14:0 NPS-PC. Bulk phase is after fraction number 17 or after elution time 17 min. (b) Distribution of darapladib in TBS, pH 7.4, with and without detergents. Forty µl of darapladib in mobile phase buffer at 0.2 µM were resolved by a TSKgel G3000SWXL column in TBS, pH 7.4, containing no detergent, 10 mM CHAPS or 600 µM Tween-20. Relative darapladib concentration in each fraction was shown by inhibition of spiked Lp-PLA2. (c) Distribution of darapladib in TBS, pH 7.4, containing HDL or LDL. Forty µl of 1 mg/ml HDL or LDL with or without 0.2 µM darapladib were resolved by a TSKgel G3000SWXL column in TBS, pH 7.4. Relative darapladib concentration in each fraction was quantitated by inhibition of spiked Lp-PLA2. (d) Distribution of darapladib in human serum. Forty µl of neat human serum with or without 150 µM darapladib under the conditions as indicated were resolved by a TSKgel G3000SWXL column in TBS, pH 7.4. Relative darapladib concentration in each fraction was determined by inhibition of spiked Lp-PLA2.
Fractionation chromatography was carried out on an Akta10 or Akta100 by using a 10 mm × 300 mm Sperose-6 column at ambient temperature with the flow rate of 0.3 ml per minute. Fifty to two hundred µl of serum samples were injected per run depending on the Lp-PLA2 concentrations of the samples after the column was equilibrated with the running buffer (PBS, pH 7.2). Fraction collection was started at 21 min after sample injection and the collection volume was 0.6 ml/tube. Distribution of 14:0 NPS-PC and darapladib were carried out by separation of 20 – 40 µl of samples on a TSKgel G3000SWXL (7.8 mm × 30 cm, 5 µm) in TBS, pH 7.4, with and without detergents using a HPLC at flow rate of 0.8 ml/min. Fractions were collected at 1 min per tube starting at 6 min and ending at 21 min. Signal of 14:0 NPS-PC was detected by monitoring at 260 nm. Darapladib were assayed based on its inhibition of Lp-PLA2 activity. To one hundred µl of fraction, 10 µl of Lp-PLA2 at the concentration of approximately 0.5 µg/ml were added and the mixture was incubated at ambient temperature for 30 min with shaking. Reaction was started by adding 50 µl of mixture of CHAPS, SNS (sodium 1-nonane sulfonate) and 14:0 NPS-PC in buffer of 150 mM HEPES, pH 7.5, containing 12 mM EDTA. The final concentrations of CHAPS, SNS and 14:0 NPS-PC were 5 mM, 10 mM and 50 µM respectively. The hydrolysis reaction was monitored at 405 nm for 5 min. Fractions were also assayed for residual Lp-PLA2 activity by mixing in 100 µl fraction with 50 µl buffer of 150 mM HEPES, pH 7.5, containing 30 mM SNS, 30 mM CHAPS, 12 mM EDTA and 1.6 mM 14:0 NPS-PC.
For orientation: Size exclusion chromatography separates by hydrodynamic size, large species first.

Series [5] has as its target T1, Lp-PLA2 (Homo sapiens, UniProt Q13093).
T1 sequence (Q13093 22-441): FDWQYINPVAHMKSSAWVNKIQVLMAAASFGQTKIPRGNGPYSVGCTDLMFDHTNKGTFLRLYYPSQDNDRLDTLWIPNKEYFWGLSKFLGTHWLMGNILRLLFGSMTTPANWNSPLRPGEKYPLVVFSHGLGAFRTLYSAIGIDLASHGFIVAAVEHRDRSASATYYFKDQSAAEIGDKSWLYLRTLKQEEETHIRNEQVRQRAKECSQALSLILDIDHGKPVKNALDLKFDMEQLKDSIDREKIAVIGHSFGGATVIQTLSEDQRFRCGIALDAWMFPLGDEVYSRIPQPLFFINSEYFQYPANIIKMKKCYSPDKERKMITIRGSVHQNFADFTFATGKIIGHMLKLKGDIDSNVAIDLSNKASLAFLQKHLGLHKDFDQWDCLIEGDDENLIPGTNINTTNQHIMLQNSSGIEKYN
The series is described as follows: Kinetics of hydrolysis of 14:0 NPS-PC by recombinant Lp-PLA2. The format is biochemical. Here is the method: (a) Fitting of kinetic model for hydrolysis of 14:0 NPS-PC in the absence and presence of 10 mM CHAPS. […] Details are in Experiment Procedures. (c) Determination of CMC for 14:0 NPS-PC and CHAPS by anisotropy of polarized fluorescence using fluorescein as probe. Details are in Experiment Procedures.
Lp-PLA2 activity was assayed under different conditions and different methods were used. […] Purified recombinant Lp-PLA2 in storage buffer was diluted into TBS or PBS, pH 7.4–7.6, at the concentration of 1 µg/ml and 20 µl of the solution were used for each reaction. […] Generally, hydrolysis of 14:0 NPS-PC was monitored at 405 nm for 5 min under ambient temperature for all kinetic assays. […] Lp-PLA2 kinetic assays were performed in the same assay buffer with 14:0 NPS-PC concentrations as indicated. Assays were carried out in 96-well plates using a SpectraMax m2e plate reader. Hydrolysis of 14:0 NPS-PC was monitored at 405 nm for 5 min under ambient temperature. Serum Lp-PLA2 activity and mass concentration were measured by using PLAC activity and mass test kits (diaDexus) following the manufacturer's instruction. PLAC mass measurements were performed by manual ELISA and PLAC activity measurements were carried out by the Beckman Coulter AU400 analyzer as described in a previous publication. Twenty or forty μl of the fractionated sample per tube were used, depending on the Lp-PLA2 concentration of the samples. Ten mM CHAPS-modified PLAC ELISA test kits were made by adding solid CHAPS to the assay buffer to the final concentration of 10 mM. The assays follow the same instructions as the unmodified PLAC mass test kits. Other Lp-PLA2 activity assays are as indicated in figures or other experimental sections.

Where two headings read alike, the source gives them in different places.

As for `C[C@H](CCC(=O)NCCC[N+](C)(C)CCCS(=O)(=O)[O-])[C@H]1CC[C@H]2[C@@H]3[C@H](O)C[C@@H]4C[C@H](O)CC[C@]4(C)[C@H]3C[C@H](O)[C@]12C` [CHAPS, 3-[(3-Cholamidopropyl)dimethylammonio]-1-propanesulfonate], the CMC in series [1] was 5 to 10 mM; in series [2] it was 6 to 10 mM.
For the molecule `CCN(CC)CCN(Cc1ccc(-c2ccc(C(F)(F)F)cc2)cc1)C(=O)Cn1c(SCc2ccc(F)cc2)nc(=O)c2c1CCC2` [darapladib], the “reduction of Lp-PLA2 activity” value with Lp-PLA2 [3] is given as “approximately 66%”. Also, in series [4] (0.2 µM in TBS pH 7.4, absence of detergents), the “detection in TBS buffer (solubility)” value is reported as “not detectable”. The solubilization by detergents entry in series [4] (0.2 µM in TBS pH 7.4 with 10 mM CHAPS or 0.6 mM Tween-20) is on record as “solubilized”.
For orientation: Km means the substrate concentration at which the rate is half of its maximum. The term Vmax denotes the top rate of the reaction or transport when substrate is in excess. Take `CCCCCCCCCCCCCC(=O)OC[C@H](COP(=O)([O-])OCC[N+](C)(C)C)OC(=O)CCC(=O)Oc1ccc([N+](=O)[O-])cc1` [14:0 NPS-PC, 1-myristoyl-2-(4-nitrophenylsuccinyl)-sn-glycero-3-phosphocholine]: the “Hill slope of the substrate titration curve” value on Lp-PLA2 [5] (absence of 10 mM CHAPS) is “approximately 2.0”; at Lp-PLA2 [5] (presence of 10 mM CHAPS) it was “approximately 1.0”. Also, the Michaelis-Menten constant (Km) at Lp-PLA2 [5] (with 10 mM CHAPS) stood at 238 ± 11.7 µM; on Lp-PLA2 [5] (without CHAPS), 187 ± 18.5 µM. In addition, the figures for the maximal velocity (Vmax) at Lp-PLA2 [5] (with 10 mM CHAPS) and on Lp-PLA2 [5] (without CHAPS) were 187 ± 2 nmol/min/mL and 191 ± 5 nmol/min/mL, respectively. Moreover, the CMC in series [1] lay within 0.5 to 1 mM. Also, the “form in bulk phase” value in series [4] (10 µM in TBS pH 7.4, absence of detergents) is recorded as “existed only as monomer”. In addition, in series [4] (10 µM in TBS pH 7.4 in presence of detergents), the “monomeric fraction detected in bulk” value is reported as “Less than 5%”. The “fraction in mixed micelles” value in series [4] (10 µM in TBS pH 7.4 with 10 mM CHAPS or 60 µM Tween-20) is above 95%.
With `C[C@@H]1CC[C@@]2(OC1)O[C@H]1[C@@H](O)[C@H]3[C@@H]4CC[C@H]5C[C@@H](O[C@@H]6O[C@H](CO)[C@H](O[C@@H]7O[C@H](CO)[C@@H](O)[C@H](O[C@@H]8OC[C@@H](O)[C@H](O)[C@H]8O)[C@H]7O[C@@H]7O[C@H](CO)[C@H](O)[C@H](O[C@@H]8O[C@H](CO)[C@@H](O)[C@H](O)[C@H]8O)[C@H]7O)[C@H](O)[C@H]6O)[C@H](O)C[C@]5(C)[C@H]4CC[C@]3(C)[C@H]1[C@@H]2C` [Digitonin], the CMC in series [2] is 0.09 mM.
Consider Tween-20, for which the “mechanism of inhibition of Lp-PLA2” value at Lp-PLA2 [5] (Lineweaver–Burk plots at different Tween-20 concentrations) was “competitive”. The CMC in series [2] is given as 0.06 mM.
Triton X-100: the CMC in series [2] is on record as 0.3 mM.
